Assay results reported in US20040197784A1, “Retinoid inducible proteins of vascular smooth muscle cells and uses thereof” (priority 2001, published 2004).

Key:
hCASMC = test: RISC mRNA expression after atRA, Northern blotting, hCASMC; type: cell-based, human
Protocol: (§1) 10-20 μg of total RNA from RASMC, PAC-1 SMC, hCASMC or rat tissues was fractionated on 1.1% agarose gel in the presence of 0.66 mol/L formaldehyde, transferred to nylon membrane, and hybridized with a 405 nt RISC cDNA probe labeled with α-^32P-dCTP. For human tissue Northern blotting, a Human Multiple Tissue Northern Blot was obtained from CLONTECH and hybridized with a human RISC DNA probe, cloned from a human BAC (AC007114; obtained from Research Genetics, Inc., Huntsville, Ala.) by PCR. Hybridizations were carried out in Rapid-hyb buffer (Amersham Life Science, Piscataway, N.J.) or Expresshyb Hybridization Solution (CLONTECH, Palo Alto, Calif.) containing labeled probe (˜2×10^6 cpm/ml) at 62-68° C. for 1-2 h or overnight, depending on the probe used. The blots were then washed under stringent conditions and exposed to Kodak XAR films for different lengths of time. Housekeeping genes used as internal controls for equal RNA loading included glyceraldehyde 3-phosphate dehydrogenase (GAPDH), 18 S rRNA, and β-actin.

RASMC [1] = test: Northern blotting of atRA-induced retinoid-response gene mRNA in cultured RASMC; details: for Peak Fold Induction: 2×10^−6 mol/L atRA; for expression of this gene set (the 14 atRA-inducible clones): Northern blot
Protocol: Rat aortic smooth muscle cells (“RASMC”) were stimulated with atRA for the indicated times and then processed for total RNA isolation and Northern blotting. Two duplicate blots were then sequentially hybridized to each of the 14 cDNAs. Scanning densitometry was performed at each time point and normalized to the corresponding GAPDH signal to ascertain the peak mRNA induction value listed in Table 2.
Cultured rat aortic SMC (RASMC) were derived from aortas of male Sprague-Dawley rats by a combined explant-enzymatic digestion procedure as described previously (Miano et al., “Expression of the Smooth Muscle Cell Calponin Gene Marks the Early Cardiac and Smooth Muscle Cell Lineages During Mouse Embryogenesis,” J. Biol. Chem. 271:7095-7103 (1996), which is hereby incorporated by reference in its entirety). These cells were grown in Dulbecco's Modified Eagle's Medium (DMEM) supplemented with 10% fetal bovine serum (FBS), 2 mM L-glutamine and antibiotics. […] Unless indicated otherwise, cells were grown on 100-mm dishes and treated with either 2×10^−mol/L all-trans-retinoic acid (atRA) or an equal volume of dimethylsulfoxide (DMSO) for various times when culture was 70-80% confluent.
Total RNA from cultured RASMC and rat tissues was isolated by the acid phenol-guanidinium isothiocyanate method (Chomczynski et al., “Single-Step Method of RNA Isolation by Acid Guanidinium Thiocyanate-Phenol-Chloroform Extraction,” Anal. Biochem. 162:156-159 (1987), which is hereby incorporated by reference in its entirety). […] Independent samples of RNA were also obtained from RASMC treated for 3, 6, 12, 24, 48, 72, 96, and 120 hr with 2×10^−6 mol/L atRA to obtain a temporal pattern of expression for each positive clone. In some experiments the effects of cycloheximide (CHX, 2.5 μg/ml) on atRA-induced gene expression were examined. […] Total RNA was size-fractionated in 1.2% agarose-formaldehyde gels, transferred to nylon membranes and then hybridized and washed following standard procedures (ExpressHyb™, CLONTECH, Palo Alto, Calif.). A rat glyceraldehyde phosphate dehydrogenase (GAPDH) or 18 S probe was used as an internal control for RNA loading. Autoradiography was performed and exposure times varied so that band intensities could be reliably quantitated using NIH Image 1.60 analysis software.

PAC-1 SMC = test: RISC mRNA expression after atRA, Northern blotting, PAC-1 SMC; type: cell-based, rat
Protocol: as §1

RASMC [2] = test: RISC mRNA expression after atRA, Northern blotting, RASMC; type: cell-based, rat
Protocol: FIGS. 9A-B show the induction of retinoid inducible serine carboxypeptidase (“RISC”) mRNA expression by atRA in a time-dependent manner. Total RNA isolated from RASMC treated with 2.0 μM atRA for 0, 3, 6, 12, 24, 48, 72, 96, 120 h was analyzed by Northern blotting with a rat RISC cDNA probe. […] Blots were also probed with GAPDH as a control for equal loading for each lane. Data shown are representative of two independent experiments.
as §1

[3] = tested on: de novo protein synthesis; test: CHX effect on de novo protein synthesis and cytotoxicity; type: cell-based; details: CHX 2.5 μg/ml
Protocol: In some experiments the effects of cycloheximide (CHX, 2.5 μg/ml) on atRA-induced gene expression were examined.

RASMC [4] = test: Cycloheximide (CHX) effects on atRA inducible gene expression, Northern blot; type: cell-based, rat; details: 2.5 μg/ml CHX
Protocol: All 4 genes show atRA-induced mRNA expression after 24 hr stimulation. […] SALF and Src-Suppressed C Kinase Substrate (“SSeCKS”) mRNA induction, however, is protein synthesis-independent. Refer to Table 2 for a complete summary of the CHX sensitivity studies.
To determine whether atRA-induced gene expression required de novo protein synthesis, rat aorta smooth muscle cell tissue was incubated with atRA in the absence or presence of cycloheximide (“CHX”) and then measured the expression of each atRA-inducible gene. […] On the other hand, atRA-induced Stoned B/TFIIAα/β-like factor (“SALF”) and Src Suppressed C Kinase Substrate (“SSeCKS”) mRNA were not blocked with CHX. In fact, there was a slight super-induction of these genes with CHX, shown in FIG. 6, which is a common characteristic of immediate early genes.

PAC1 SMC = test: Growth of PAC1 SMC stably transfected with RISC (cell counts over 5 days); type: cell-based, rat; details: three stably transfected RISC cell lines, 10% FBS, vs empty vector (mock)
Protocol: Rat or human RISC is cloned into a suitable mammalian expression plasmid including, but not limited to, pEF1/V5-His, and verified for expression by Western blotting (using an antibody that binds the His tag of the RISC-His fusion protein) of transiently-transfected cells. For transient transfection, subconfluent cells are overlayed with a DNA-calcium-phosphate coprecipitate containing the RISC expression plasmid and then allowed to incubate overnight The following day, cells are washed with phosphate-buffered saline and re-fed fresh growth medium for an additional 24-48 hours whereupon standard cell lysates are made for protein analysis via Western blotting. […] Following two weeks of selection in G418, resistant cell “clones” cartying the RISC-His fusion protein are isolated and expanded for further analysis.
Each of three stably transfected cell lines were grown in the presence of 10% FBS for 5 days and on each day total cell numbers were calculated with a hemocytometer. […] A graph illustrating the effects on SMC growth is shown at FIG. 17.

ERK = test: RISC attenuation of ERK activity (phospho-ERK immunoblot); type: cell-based, rat; details: RISC expressing cells vs mock cells; 30 minutes after serum stimulation
Protocol: Stable cell lines prepared according to Example 3 were grown to subconfluence and made quiescent by serum withdrawal (typically 0.5% FBS for 24-48 hours). Cells were then stimulated with serum or a purified growth factor (PDGF-BB) to stimulate the ERK pathway. At selected times following such stimulation, standard cell extracts were prepared to analyze the activation of ERK as measured by its phosphorylated state with a phospho-specific antibody.

## CC1=C(/C=C/C(C)=C/C=C/C(C)=C/C(=O)O)C(C)(C)CCC1 [atRA, all-trans-retinoic acid]
hCASMC
  RISC mRNA following atRA stimulation: increases in RISC mRNA
RASMC [1]; Cathepsin-L mRNA, peak at 72 hr, relative to 0 time point
  Peak Fold Induction: 3.5 (72 hr) fold
RASMC [1]; Ceruloplasmin mRNA, peak at 72 hr, relative to 0 time point
  Peak Fold Induction: 2.0 (72 hr) fold
RASMC [1]; Endolyn mRNA, peak at 96 hr, relative to 0 time point
  Peak Fold Induction: 2.0 (96 hr) fold
RASMC [1]; Epithelin mRNA, peak at 48 hr, relative to 0 time point
  Peak Fold Induction: 2.9 (48 hr) fold
RASMC [1]; Importin α mRNA, peak at 12 hr, relative to 0 time point
  Peak Fold Induction: 4.0 (12 hr) fold
RASMC [1]; LDH-B mRNA, peak at 24 hr, relative to 0 time point
  Peak Fold Induction: 4.6 (24 hr) fold
RASMC [1]; LOX-1 mRNA, peak at 3 hr, relative to 0 time point
  Peak Fold Induction: 7.2 (3 hr) fold
RASMC [1]; RDH mRNA, peak at 48 hr, relative to 3 hr time point as baseline
  Peak Fold Induction: >2.8 (48 hr) fold
RASMC [1]; SALF mRNA, peak at 3 hr, relative to 0 time point
  Peak Fold Induction: 4.1 (3 hr) fold
RASMC [1]; SSAT mRNA, peak at 48 hr, relative to 0 time point
  Peak Fold Induction: 4.8 (48 hr) fold
RASMC [1]; SSeCKS mRNA, peak at 12 hr, relative to 0 time point
  Peak Fold Induction: 4.8 (12 hr) fold
RASMC [1]; VCAM-1 mRNA, peak at 96 hr, relative to 0 time point
  Peak Fold Induction: 2.5 (96 hr) fold
RASMC [1]; tTG mRNA, peak at 12 hr, relative to 3 hr time point as baseline
  Peak Fold Induction: >4.0 (12 hr) fold
RASMC [1]; α8-integrin mRNA, peak at 72 hr, relative to 0 time point
  Peak Fold Induction: 2.4 (72 hr) fold
PAC-1 SMC
  RISC mRNA following atRA stimulation: increases in RISC mRNA
RASMC [2]
  time of peak increase in RISC mRNA following atRA stimulation: around 4 days
RASMC [2]; 2.0 μM atRA, fresh atRA applied daily, 5 day time course
  RISC mRNA levels: increased progressively

## C[C@@H]1C[C@@H]([C@H](O)CC2CC(=O)NC(=O)C2)C(=O)[C@@H](C)C1 [CHX, cycloheximide]
[3]
  overt cytotoxicity: without any signs of overt cytotoxicity
  reduction of de novo protein synthesis: more than 90%
RASMC [4]; Cathepsin-L mRNA
  CHX Inhibit (atRA-induced mRNA expression): Yes
RASMC [4]; Ceruloplasmin mRNA
  CHX Inhibit (atRA-induced mRNA expression): Yes
RASMC [4]; Endolyn mRNA
  CHX Inhibit (atRA-induced mRNA expression): No
RASMC [4]; Epithelin mRNA
  CHX Inhibit (atRA-induced mRNA expression): Yes
RASMC [4]; Importin α mRNA
  CHX Inhibit (atRA-induced mRNA expression): Yes
RASMC [4]; LDH-B mRNA
  CHX Inhibit (atRA-induced mRNA expression): Yes
RASMC [4]; LOX-1 mRNA
  CHX Inhibit (atRA-induced mRNA expression): No
RASMC [4]; RDH mRNA
  CHX Inhibit (atRA-induced mRNA expression): Yes
RASMC [4]; SALF mRNA
  CHX Inhibit (atRA-induced mRNA expression): not blocked and No
RASMC [4]; SSAT mRNA
  CHX Inhibit (atRA-induced mRNA expression): attenuated and completely blocked and Yes
RASMC [4]; SSeCKS mRNA
  CHX Inhibit (atRA-induced mRNA expression): not blocked and No
RASMC [4]; VCAM-1 mRNA
  CHX Inhibit (atRA-induced mRNA expression): Yes
RASMC [4]; tTG mRNA
  CHX Inhibit (atRA-induced mRNA expression): No
RASMC [4]; α8-integrin mRNA
  CHX Inhibit (atRA-induced mRNA expression): attenuated and completely blocked and Yes
RASMC [2]; 24 hours following treatment
  CHX effect on atRA-increased RISC expression: No change in RISC expression
RASMC [2]; 48 hr following atRA treatment
  CHX effect on atRA-increased RISC expression: blocked increased RISC expression

## CC1=C(/C=C/C(C)=C/C=C/C(C)=C\C(=O)O)C(C)(C)CCC1 [13-cis RA]
RASMC [1]
  expression of this gene set (the 14 atRA-inducible clones): elevated

## CC1=C(/C=C/C(C)=C/C=C/C(C)=C/C(=O)Nc2ccc(O)cc2)C(C)(C)CCC1 [4-Hydroxyphenylretinamide]
RASMC [1]
  expression of this gene set (the 14 atRA-inducible clones): elevated

B1: RISC: retinoid inducible serine carboxypeptidase protein, expressed as RISC-His fusion protein in stably transfected PAC1 SMC (protein, UniProt Q920A6 29-452, looked up)
Retinoid-inducible serine …: LNWREQEGKEVWDYVTVREDARMFWWLYYATNPCKNFSELPLVMWLQGGPGGSSTGFGNFEEIGPLDTRLKPRNTTWLQWASLLFVDNPVGTGFSYVNTTDAYAKDLDTVASDMMVLLKSFFDCHKEFQTVPFYIFSESYGGKMAAGISLELHKAIQQGTIKCNFSGVALGDSWISPVDSVLSWGPYLYSVSLLDNKGLAEVSDIAEQVLNAVNKGFYKEATQLWGKAEMIIEKNTDGVNFYNILTKSTPDTSMESSLEFFRSPLVRLCQRHVRHLQGDALSQLMNGPIKKKLKIIPDDVSWGAQSSSVFISMEEDFMKPVIDIVDTLLELGVNVTVYNGQLDLIVDTIGQESWVQKLKWPQLSRFNQLKWKALYTNPKSSETSAFVKSYENLAFYWILKAGHMVPADQGDMALKMMRLVTQQE
modifications: His tag
notes: retinoid inducible serine carboxypeptidase protein, expressed as RISC-His fusion protein in stably transfected PAC1 SMC
PAC1 SMC
  cell growth (total cell numbers by hemocytometer): significant inhibition in cell growth
ERK
  phospho-ERK activation: activated less phospho-ERK
